Here are results for one compound from patent publication US20210196731A1, “COMPOSITIONS AND METHODS FOR TREATING OCULAR INFLAMMATION AND OCULAR SCARRING” (priority 2018, published 2021).

The test system of assay [1] is HTCFs. Description: Collagen Contraction Assay III (TGFB1-induced). Format: cell-based, human. The note with it: ASA 1000 or 1500 μg/ml, with or without gentamicin; TGFB1 2 ng/ml added at 48 hrs. The protocol: A modified delayed release fibroblast populated collagen lattice model was used to assess inhibition of TGFB1-induced collagen contraction by ASA and gentamicin. HTCFs were seeded at a density of 2.5×10^5 cells/mL within an extracellular matrix (ECM) mixture containing 400 ul of rat tail-derived type I collagen (1.8 mg/ml), 80 ul of neutralizing solution (equal parts Waymouth's media (Gibco, CAT. NO: 11220035) and 0.275M NaOH) and 20 ul of HTCF conditioned media (concentrated to 25× to obtain a 1× final concentration within the 500 ul matrix solution). The cell-collagen solution was pipetted gently to ensure homogenous distribution of HTCFs while avoiding the production of air bubbles, then 500 ul were pipetted into each well of a 24-well tray. […]
Tension was allowed to build up within the tethered matrix at 37 C and 5% CO2 for 72 hours before a sterile spatula was used to detach each collagen construct from the edges of the culture well. Plates were then immediately scanned on a flat bed laser scanner for a baseline area reading and then measured again regularly for a total of 4 days. […] The surface area of each collagen construct was measured using ImageJ (NIH) and standardized against the baseline surface area measurement to express changes in area as a percentage of original surface area. […]

Assay [2] concerns HTCFs. Description: Collagen Contraction Assay IV (AHGF induced, ASA and gentamicin vs mitomycin C). The class given is cell-based, human. Conditions: ASA 1500 μg/ml and/or gentamicin 750 μg/ml; comparator mitomycin C 0.2 mg/ml for 4 minutes.
Description: The cell-collagen solution was pipetted gently to ensure homogenous distribution of HTCFs while avoiding the production of air bubbles, then 500 ul were pipetted into each well of a 24-well tray. Collagen constructs were allowed to polymerize at 37 C for 45 minutes before adding low serum culture media containing DMEM, 2% Fetal Bovine Serum (FBS), 1% penicillin/streptomycin (P/S).
Tension was allowed to build up within the tethered matrix at 37 C and 5% CO2 for 72 hours before a sterile spatula was used to detach each collagen construct from the edges of the culture well. Plates were then immediately scanned on a flat bed laser scanner and then periodically for a total of 4 days. The surface area of each collagen construct was measured using ImageJ (NIH) and standardized against the baseline surface area measurement to express changes in area as a percentage of original surface area.
In this modification of the assay, AHGFs are added to all culture media the collagen constructs are exposed to—from casting of the collagen constructs to the conclusion of contraction. The experimental treatment solutions—all also containing AHGFs—were added 30 minutes prior to detaching the collagen constructs from the culture wells and remained until experimental conclusion. […] DMEM w/2% FBS was added for the remainder of the experiment).

With `CC(=O)Oc1ccccc1C(=O)O` [ASA, acetylsalicylic acid], in assay [1], the “HTCF-mediated collagen contraction before and after TGFb1 stimulus” value was “significantly impair HTCF-mediated contraction, at all concentrations assessed, both before and after stimulus with TGFb1”. The “AHGF induced, HTCF-mediated collagen contraction” value in assay [2] was “significantly negate the effects of the AHGFs on HTCF-mediated collagen contraction, albeit significantly less than the current ophthalmic clinical gold standard”.
